According to patent US7547513B2, “Mutants of deoxycytidine kinase having extended enzymatic activity” (priority 2001, dated 2009):
Converted amounts (≈) assume the structure as drawn.

Columns and labels:
[1] = test system: Escherichia coli β7334 Δdeo tdk cdd::Tn10 pSUTrc (dck allele: none); type: cell-based; settings: strain β7334, dck allele none; 18 h 37° C., MS medium + IPTG
Description: (§1) The culture was then diluted 100 times in the same medium supplemented with IPTG and distributed on 96-well microplates in a final volume of 100 μl in a series of dilutions from to 2 to 2 nucleotide analogues. Each analogue was tested twice. After incubation for 18 hours at 37° C. with stirring, the MIC was determined as corresponding to the lowest analogue concentration for which no turbidity was detectable.
(§2) The toxicity of nucleoside analogues, deviating either by the sugar or by the base, was evaluated in strains of genotype Δdeo tdk cdd expressing on a plasmid the different dckH alleles, wild-type allele, D133E, R104Q and double mutant.
(§3) The minimum inhibitory concentrations, expressed in microM, were determined as indicated in the section Materials and Methods.

[2] = test system: Escherichia coli β7338 Δdeo tdk cdd::Tn10 pSUDCK4 (dck:D133E-R104Q); type: cell-based; settings: strain β7338, dck allele D133E R104Q; 18 h 37° C., MS medium + IPTG
Description: as §1, §2, §3

[3] = test system: Escherichia coli β7336 Δdeo tdk cdd::Tn10 pSUDCK2 (dck:D133E); type: cell-based; settings: strain β7336, dck allele D133E; 18 h 37° C., MS medium + IPTG
Description: (§4) The culture was then diluted 100 times in the same medium supplemented with IPTG and distributed on 96-well microplates in a final volume of 100 μl in a series of dilutions from to 2 to 2 nucleotide analogues. Each analogue was tested twice.
as §2, §3

[4] = test system: Escherichia coli β7337 Δdeo tdk cdd::Tn10 pSUDCK3 (dck:R104Q); type: cell-based; settings: for minimum inhibitory concentration (MIC): strain β7337, dck allele R104Q, 18 h 37° C., MS medium + IPTG
Description: as §4, §2, §3

[5] = test system: Escherichia coli β7339 Δdeo tdk cdd::Tn10 (dckH none, amkG wt); assay: microbe, parasite or virus in culture; type: cell-based; settings: strain β7339, dckH none, amkG wt
Description: as §1
(§5) We jointly expressed, within the genetic context Δdeo tdk cdd each of the four alleles of dckH with each of the two wt and T39A alleles of amkG, and tested the toxicity of the different nucleoside analogues already tested previously (Table 4 below).
as §3

[6] = test system: Escherichia coli β7340 Δdeo tdk cdd::Tn10 (dckH wt, amkG wt); assay: microbe, parasite or virus in culture; type: cell-based; settings: strain β7340, dckH wt, amkG wt
Description: as §1, §5, §3

[7] = test system: Escherichia coli β7341 Δdeo tdk cdd::Tn10 (dckH D133E, amkG wt); assay: microbe, parasite or virus in culture; type: cell-based; settings: strain β7341, dckH D133E, amkG wt
Description: as §1, §5, §3

[8] = test system: Escherichia coli β7342 Δdeo tdk cdd::Tn10 (dckH R104Q, amkG wt); assay: microbe, parasite or virus in culture; type: cell-based; settings: strain β7342, dckH R104Q, amkG wt
Description: as §1, §5, §3

[9] = test system: Escherichia coli β7343 Δdeo tdk cdd::Tn10 (dckH D133E R104Q, amkG wt); assay: microbe, parasite or virus in culture; type: cell-based; settings: strain β7343, dckH D133E R104Q, amkG wt
Description: as §1, §5, §3

[10] = test system: Escherichia coli β7344 Δdeo tdk cdd::Tn10 (dckH none, amkG T39A); assay: microbe, parasite or virus in culture; type: cell-based; settings: strain β7344, dckH none, amkG T39A
Description: as §1, §5, §3

[11] = test system: Escherichia coli β7345 Δdeo tdk cdd::Tn10 (dckH wt, amkG T39A); assay: microbe, parasite or virus in culture; type: cell-based; settings: strain β7345, dckH wt, amkG T39A
Description: as §1, §5, §3

[12] = test system: Escherichia coli β7346 Δdeo tdk cdd::Tn10 (dckH D133E, amkG T39A); assay: microbe, parasite or virus in culture; type: cell-based; settings: strain β7346, dckH D133E, amkG T39A
Description: as §1, §5, §3

[13] = test system: Escherichia coli β7347 Δdeo tdk cdd::Tn10 (dckH R104Q, amkG T39A); assay: microbe, parasite or virus in culture; type: cell-based; settings: strain β7347, dckH R104Q, amkG T39A
Description: as §1, §5, §3

[14] = test system: Escherichia coli β7348 Δdeo tdk cdd::Tn10 (dckH D133E R104Q, amkG T39A); assay: microbe, parasite or virus in culture; type: cell-based; settings: strain β7348, dckH D133E R104Q, amkG T39A
Description: as §1, §5, §3

[15] = test system: Escherichia coli β7335 Δdeo tdk cdd::Tn10 pSUDCK1 (dck wt); type: cell-based; settings: strain β7335, dck allele wt; 18 h 37° C., MS medium + IPTG
Description: as §4, §2, §3

[16] = test system: bacteria of genotype Δdeo tdk p::dckH+ (β7134 cells); assay: Selection of the DCK mutants in vivo (mutagenesis of dck gene by promutagenic nucleosides); type: cell-based, Escherichia coli; settings: for frequency of colonies on solid rich medium with trimethoprim and thymidine after exposure: no colony in the absence of promutagenic nucleoside
Description: Selection of the DCK mutants in vivo: a 12-hour culture of the β7134 cells in MS medium supplemented with 50 mg/l of carbenicillin was diluted 100 times in the same medium and cultured with aeration until turbidity of 0.100 (600 nm) was reached. The culture was then diluted 25 times in the same medium with or without IPTG and supplemented with variable concentrations (5 to 30 μM) of the promutagenic nucleoside analogues disoG and disoA then cultured with aeration for 18 hours. The cells were rinsed then plated on MH dishes supplemented with trimethoprim, thymidine and IPTG. Colonies appeared after incubation for 36 hours at 37° C. No colony was obtained in the absence of nucleoside analogue.
We took advantage of the conditional mutating property of DCK in the presence of promutagenic nucleoside analogues in order to subject its own dck gene to an episode of mutagenesis in vivo. Thus, bacteria of genotype Δdeo tdk p::dckH+ were exposed either to 2′-deoxy-iso-adenosine (disoA) or to 2′ deoxy-iso-guanosine (disoG), then incubated on solid rich medium in the presence of trimethoprim and thymidine. Colonies appeared following the administration of the two compounds at a frequency of the order of 10^−8. No colony survived in the absence of promutagenic nucleoside.
These alleles are designated dckH*. A plasmid combining the two mutations in the same allele, dckH**, was constructed and introduced into the strain β7117 of genotype Δdeo tdk. This allowed the complementation of the tdk mutation, thus also expressing a thymidine kinase activity. The different alleles selected are itemized in Table 2 below.

[17] = sequenced mutant plasmids obtained independently

Row | SMILES | minimum inhibitory concentration (MIC) [1] | minimum inhibitory concentration (MIC) [2] | minimum inhibitory concentration (MIC) [3] [µM] | minimum inhibitory concentration (MIC) [4] [µM] | minimum inhibitory concentration (MIC) [5] | minimum inhibitory concentration (MIC) [6] | minimum inhibitory concentration (MIC) [7] | minimum inhibitory concentration (MIC) [8] | minimum inhibitory concentration (MIC) [9] | minimum inhibitory concentration (MIC) [10] | minimum inhibitory concentration (MIC) [11] | minimum inhibitory concentration (MIC) [12] | minimum inhibitory concentration (MIC) [13] | minimum inhibitory concentration (MIC) [14] | minimum inhibitory concentration (MIC) [15] [µM] | effect of the mutation on toxicity ([4]; mutation R104Q) | frequency of colonies on solid rich medium with trimethoprim and thymidine after exposure [16] | Frequency of mutation detected C → A, codon 133 GAC, Asp → Glu [16, 17] | Frequency of mutation detected C → G, codon 133 GAC, Asp → Glu [16, 17] | Frequency of mutation detected G → A, codon 133 CGA, Arg → Glu [16, 17]
1 | NNc1ccn([C@H]2C[C@H](O)[C@@H](CO)O2)c(=O)n1 [amino-dC, N4-amino-2′-deoxycitidine] | > (no toxicity could be detected at the highest analogue concentration, 1.28 mM) | 20 µM | 20 | 2.5 | > (no toxicity could be detected at the highest analogue concentration, 1280 microM) | 80 µM (≈ 19.4 µg/mL) | > (no toxicity could be detected at the highest analogue concentration, 1280 microM) | ≦1.25 microM | 80 µM (≈ 19.4 µg/mL) | > (no toxicity could be detected at the highest analogue concentration, 1280 microM) | > (no toxicity could be detected at the highest analogue concentration, 1280 microM) | 640 µM (≈ 155 µg/mL) | 5 µM (≈ 1.21 µg/mL) | 320 µM (≈ 77.5 µg/mL) |  |  |  |  |  | 
2 | Nc1ccn([C@@H]2O[C@H](CO)[C@@H](O)[C@@H]2O)c(=O)n1 [araC, arabinocytidine] | > (no toxicity could be detected at the highest analogue concentration, 1.28 mM) | 320 µM | 20 | 20 |  |  |  |  |  |  |  |  |  |  | 160 |  |  |  |  | 
3 | Nc1ncnc2c1ncn2[C@H]1CC[C@@H](CO)O1 [ddA] | 80 µM | 80 µM | 80 | 80 |  |  |  |  |  |  |  |  |  |  | 80 |  |  |  |  | 
4 | O=c1[nH]cnc2c1ncn2[C@H]1CC[C@@H](CO)O1 [ddI] | 80 µM | 40 µM | 40 | 20 |  |  |  |  |  |  |  |  |  |  | 40 |  |  |  |  | 
5 | Nc1ncc2ncn([C@H]3C[C@H](O)[C@@H](CO)O3)c2n1 [disoA, 2-amino-9-(2′-deoxy-β-D-ribofuranosyl)purine] | > (no toxicity could be detected at the highest analogue concentration, 1.28 mM) | > (no toxicity could be detected at the highest analogue concentration, 1.28 mM) | 10 |  | > (no toxicity could be detected at the highest analogue concentration, 1280 microM) | > (no toxicity could be detected at the highest analogue concentration, 1280 microM) | > (no toxicity could be detected at the highest analogue concentration, 1280 microM) | > (no toxicity could be detected at the highest analogue concentration, 1280 microM) | 1280 µM (≈ 322 µg/mL) | > (no toxicity could be detected at the highest analogue concentration, 1280 microM) | > (no toxicity could be detected at the highest analogue concentration, 1280 microM) | 10 µM (≈ 2.51 µg/mL) | > (no toxicity could be detected at the highest analogue concentration, 1280 microM) | > (no toxicity could be detected at the highest analogue concentration, 1280 microM) |  | no effect | ~10^−8 | 1/3 | 1/3 | 1/3
6 | Nc1nc(O)nc2c1ncn2[C@H]1C[C@H](O)[C@@H](CO)O1 [disoG, 2-hydroxy-6-amino-9-(2′-deoxy-β-D-ribofuranosyl)purine] | > (no toxicity could be detected at the highest analogue concentration, 1.28 mM) | > (no toxicity could be detected at the highest analogue concentration, 1.28 mM) |  |  | > (no toxicity could be detected at the highest analogue concentration, 1280 microM) | > (no toxicity could be detected at the highest analogue concentration, 1280 microM) | > (no toxicity could be detected at the highest analogue concentration, 1280 microM) | > (no toxicity could be detected at the highest analogue concentration, 1280 microM) | > (no toxicity could be detected at the highest analogue concentration, 1280 microM) | > (no toxicity could be detected at the highest analogue concentration, 1280 microM) | > (no toxicity could be detected at the highest analogue concentration, 1280 microM) | > (no toxicity could be detected at the highest analogue concentration, 1280 microM) | > (no toxicity could be detected at the highest analogue concentration, 1280 microM) | > (no toxicity could be detected at the highest analogue concentration, 1280 microM) |  |  | ~10^−8 | 4/4 |  | 
